System: Acanthamoeba
Experiment: Acanthamoeba growth inhibition, alamarBlue reduction
Type: cell-based, Acanthamoeba castellanii
Excerpt: Furthermore, inhibition was ablated in a dose dependent manner by the addition of histidine to the medium.

SMILES | effect of 3AT on growth in the presence of histidine (10 mM histidine added, 0.98 mM 3-AT, alamarBlue reduction) | IC20 (Acanthamoeba, read-out: IC20 of 3-AT) [µM] | IC50 (Acanthamoeba, absence of histidine, percentage of alamarBlue reduction) [µM] | concentration required to significantly (p<0.05) inhibit A. castellanii growth (in the presence of 1 mM Histidine) [mM] | growth of Acanthamoeba (medium without histidine, inhibition ablated dose dependently by added histidine) | concentration that significantly (p<0.05) inhibited A. castellanii growth (no histidine, compared with untreated control cultures, dose dependent) [mM] | toxicity of histidine to Acanthamoeba (100 mM histidine)
Nc1nc[nH]n1 [3-AT, 3-amino-1,2,4-triazole] | significantly (p<0.05) ablated the effect of 3AT | 980 | 15 to 31 | ≥ 0.06 | inhibits growth | ≥ 0.00095 | –
N[C@@H](Cc1c[nH]cn1)C(=O)O [histidine] | – | – | – | – | – | – | toxic
